Measured values from patent EP0913089A1, “Synergistic herbicidal composition containing R-imazethapyr and R-imazapyr and method for controlling weeds therewith” (American Cyanamid Company, priority 1997, dated 1999).

Experiments:
Test in all cases: Greenhouse postemergence weed control, visual rating (Example 1)
Design in all cases: scale not given here
Settings in all cases: approx. 3 weeks after treatment
CHEAL = type: in vivo, Chenopodium album, L.
Procedure: (§1) In this evaluation, plants are grown in standard greenhouse soil for 10-14 days until they are at the 2-to 4-leaf stage. Said plants are then sprayed with an aqueous solution of the test compounds which contains 0.25% of a non-ionic surfactant and 1% of a 28-0-0 liquid fertilizer. Each treatment is replicated 3 to 4 times. Approximately 3 weeks after treatment visual ratings are made using the rating scale shown below. The data are averaged and shown on Table I. [table] [table]

SETVI = type: in vivo, Setaria viridis, (L) Beauv
Procedure: as §1

ABUTH = type: in vivo, Abutilon theophrasti, Medic.
Procedure: as §1

AMBEL = type: in vivo, Ambrosia artemisiifolia, L.
Procedure: as §1

CC(C)C1(C)N=C(c2ncccc2C(=O)O)NC1=O (racemic) [Imazapyr]
WEED CONTROL CHEAL (CHEAL; Rate 2.016 g/ha): 6.3 | WEED CONTROL CHEAL (CHEAL; Rate 4.00 g/ha): 8.0 | WEED CONTROL CHEAL (CHEAL; Rate 8.00 g/ha): 8.8 | WEED CONTROL CHEAL (CHEAL; Rate 16.00 g/ha): 9.0 | WEED CONTROL CHEAL (CHEAL; Rate 32.00 g/ha): 9.0 | WEED CONTROL CHEAL (CHEAL; Rate 48.00 g/ha): 9.0 | WEED CONTROL CHEAL (CHEAL; Rate 64.00 g/ha): 9.0 | WEED CONTROL SETVI (SETVI; Rate 2.016 g/ha): 5.3 | WEED CONTROL SETVI (SETVI; Rate 4.00 g/ha): 6.8 | WEED CONTROL SETVI (SETVI; Rate 8.00 g/ha): 9.0 | WEED CONTROL SETVI (SETVI; Rate 16.00 g/ha): 9.0 | WEED CONTROL SETVI (SETVI; Rate 32.00 g/ha): 9.0 | WEED CONTROL SETVI (SETVI; Rate 48.00 g/ha): 9.0 | WEED CONTROL SETVI (SETVI; Rate 64.00 g/ha): 9.0 | WEED CONTROL ABUTH (ABUTH; Rate 2.016 g/ha): 4.8 | WEED CONTROL ABUTH (ABUTH; Rate 4.00 g/ha): 6.3 | WEED CONTROL ABUTH (ABUTH; Rate 8.00 g/ha): 7.5 | WEED CONTROL ABUTH (ABUTH; Rate 16.00 g/ha): 8.5 | WEED CONTROL ABUTH (ABUTH; Rate 32.00 g/ha): 9.0 | WEED CONTROL ABUTH (ABUTH; Rate 48.00 g/ha): 9.0 | WEED CONTROL ABUTH (ABUTH; Rate 64.00 g/ha): 9.0 | WEED CONTROL AMBEL (AMBEL; Rate 2.016 g/ha): 2.5 | WEED CONTROL AMBEL (AMBEL; Rate 4.00 g/ha): 4.0 | WEED CONTROL AMBEL (AMBEL; Rate 8.00 g/ha): 5.0 | WEED CONTROL AMBEL (AMBEL; Rate 16.00 g/ha): 7.0 | WEED CONTROL AMBEL (AMBEL; Rate 32.00 g/ha): 7.8 | WEED CONTROL AMBEL (AMBEL; Rate 48.00 g/ha): 8.8 | WEED CONTROL AMBEL (AMBEL; Rate 64.00 g/ha): 8.8

CCc1cnc(C2=NC(C)(C(C)C)C(=O)N2)c(C(=O)O)c1 (racemic) [Imazethapyr]
WEED CONTROL CHEAL (CHEAL; Rate 4.00 g/ha): 2.5 | WEED CONTROL CHEAL (CHEAL; Rate 8.00 g/ha): 2.3 | WEED CONTROL CHEAL (CHEAL; Rate 16.00 g/ha): 3.5 | WEED CONTROL CHEAL (CHEAL; Rate 32.00 g/ha): 7.0 | WEED CONTROL CHEAL (CHEAL; Rate 64.00 g/ha): 8.0 | WEED CONTROL CHEAL (CHEAL; Rate 96.00 g/ha): 9.0 | WEED CONTROL CHEAL (CHEAL; Rate 128.00 g/ha): 9.0 | WEED CONTROL SETVI (SETVI; Rate 4.00 g/ha): 3.5 | WEED CONTROL SETVI (SETVI; Rate 8.00 g/ha): 4.5 | WEED CONTROL SETVI (SETVI; Rate 16.00 g/ha): 4.3 | WEED CONTROL SETVI (SETVI; Rate 32.00 g/ha): 6.0 | WEED CONTROL SETVI (SETVI; Rate 64.00 g/ha): 7.5 | WEED CONTROL SETVI (SETVI; Rate 96.00 g/ha): 9.0 | WEED CONTROL SETVI (SETVI; Rate 128.00 g/ha): 9.0 | WEED CONTROL ABUTH (ABUTH; Rate 4.00 g/ha): 2.5 | WEED CONTROL ABUTH (ABUTH; Rate 8.00 g/ha): 3.0 | WEED CONTROL ABUTH (ABUTH; Rate 16.00 g/ha): 4.0 | WEED CONTROL ABUTH (ABUTH; Rate 32.00 g/ha): 6.3 | WEED CONTROL ABUTH (ABUTH; Rate 64.00 g/ha): 6.3 | WEED CONTROL ABUTH (ABUTH; Rate 96.00 g/ha): 9.0 | WEED CONTROL ABUTH (ABUTH; Rate 128.00 g/ha): 9.0 | WEED CONTROL AMBEL (AMBEL; Rate 4.00 g/ha): 2.5 | WEED CONTROL AMBEL (AMBEL; Rate 8.00 g/ha): 2.8 | WEED CONTROL AMBEL (AMBEL; Rate 16.00 g/ha): 4.0 | WEED CONTROL AMBEL (AMBEL; Rate 32.00 g/ha): 6.0 | WEED CONTROL AMBEL (AMBEL; Rate 64.00 g/ha): 6.5 | WEED CONTROL AMBEL (AMBEL; Rate 96.00 g/ha): 7.5 | WEED CONTROL AMBEL (AMBEL; Rate 128.00 g/ha): 8.8

CC(C)[C@@]1(C)N=C(c2ncccc2C(=O)O)NC1=O [R-Imazapyr, R-imazapyr]
WEED CONTROL CHEAL (CHEAL; Rate 1.34 g/ha): 7.3 | WEED CONTROL CHEAL (CHEAL; Rate 2.68 g/ha): 7.8 | WEED CONTROL CHEAL (CHEAL; Rate 5.36 g/ha): 8.3 | WEED CONTROL CHEAL (CHEAL; Rate 10.72 g/ha): 9.0 | WEED CONTROL CHEAL (CHEAL; Rate 21.44 g/ha): 9.0 | WEED CONTROL CHEAL (CHEAL; Rate 32.16 g/ha): 9.0 | WEED CONTROL CHEAL (CHEAL; Rate 42.88 g/ha): 9.0 | WEED CONTROL SETVI (SETVI; Rate 1.34 g/ha): 6.0 | WEED CONTROL SETVI (SETVI; Rate 2.68 g/ha): 7.5 | WEED CONTROL SETVI (SETVI; Rate 5.36 g/ha): 8.0 | WEED CONTROL SETVI (SETVI; Rate 10.72 g/ha): 9.0 | WEED CONTROL SETVI (SETVI; Rate 21.44 g/ha): 9.0 | WEED CONTROL SETVI (SETVI; Rate 32.16 g/ha): 9.0 | WEED CONTROL SETVI (SETVI; Rate 42.88 g/ha): 9.0 | WEED CONTROL ABUTH (ABUTH; Rate 1.34 g/ha): 4.3 | WEED CONTROL ABUTH (ABUTH; Rate 2.68 g/ha): 5.8 | WEED CONTROL ABUTH (ABUTH; Rate 5.36 g/ha): 7.3 | WEED CONTROL ABUTH (ABUTH; Rate 10.72 g/ha): 8.0 | WEED CONTROL ABUTH (ABUTH; Rate 21.44 g/ha): 9.0 | WEED CONTROL ABUTH (ABUTH; Rate 32.16 g/ha): 9.0 | WEED CONTROL ABUTH (ABUTH; Rate 42.88 g/ha): 9.0 | WEED CONTROL AMBEL (AMBEL; Rate 1.34 g/ha): 1.5 | WEED CONTROL AMBEL (AMBEL; Rate 2.68 g/ha): 4.5 | WEED CONTROL AMBEL (AMBEL; Rate 5.36 g/ha): 5.0 | WEED CONTROL AMBEL (AMBEL; Rate 10.72 g/ha): 6.3 | WEED CONTROL AMBEL (AMBEL; Rate 21.44 g/ha): 7.5 | WEED CONTROL AMBEL (AMBEL; Rate 32.16 g/ha): 9.0 | WEED CONTROL AMBEL (AMBEL; Rate 42.88 g/ha): 8.5

CCc1cnc(C2=N[C@](C)(C(C)C)C(=O)N2)c(C(=O)O)c1 [R-Imazethapyr, R-imazethapyr]
WEED CONTROL CHEAL (CHEAL; Rate 2.68 g/ha): 2.3 | WEED CONTROL CHEAL (CHEAL; Rate 5.36 g/ha): 3.8 | WEED CONTROL CHEAL (CHEAL; Rate 10.72 g/ha): 4.0 | WEED CONTROL CHEAL (CHEAL; Rate 21.44 g/ha): 6.8 | WEED CONTROL CHEAL (CHEAL; Rate 42.88 g/ha): 7.0 | WEED CONTROL CHEAL (CHEAL; Rate 64.30 g/ha): 9.0 | WEED CONTROL CHEAL (CHEAL; Rate 85.76 g/ha): 9.0 | WEED CONTROL SETVI (SETVI; Rate 2.68 g/ha): 4.8 | WEED CONTROL SETVI (SETVI; Rate 5.36 g/ha): 4.5 | WEED CONTROL SETVI (SETVI; Rate 10.72 g/ha): 5.5 | WEED CONTROL SETVI (SETVI; Rate 21.44 g/ha): 6.5 | WEED CONTROL SETVI (SETVI; Rate 42.88 g/ha): 7.5 | WEED CONTROL SETVI (SETVI; Rate 64.30 g/ha): 9.0 | WEED CONTROL SETVI (SETVI; Rate 85.76 g/ha): 9.0 | WEED CONTROL ABUTH (ABUTH; Rate 2.68 g/ha): 4.8 | WEED CONTROL ABUTH (ABUTH; Rate 5.36 g/ha): 4.8 | WEED CONTROL ABUTH (ABUTH; Rate 10.72 g/ha): 4.8 | WEED CONTROL ABUTH (ABUTH; Rate 21.44 g/ha): 6.8 | WEED CONTROL ABUTH (ABUTH; Rate 42.88 g/ha): 7.0 | WEED CONTROL ABUTH (ABUTH; Rate 64.30 g/ha): 9.0 | WEED CONTROL ABUTH (ABUTH; Rate 85.76 g/ha): 9.0 | WEED CONTROL AMBEL (AMBEL; Rate 2.68 g/ha): 3.8 | WEED CONTROL AMBEL (AMBEL; Rate 5.36 g/ha): 3.5 | WEED CONTROL AMBEL (AMBEL; Rate 10.72 g/ha): 3.0 | WEED CONTROL AMBEL (AMBEL; Rate 21.44 g/ha): 4.8 | WEED CONTROL AMBEL (AMBEL; Rate 42.88 g/ha): 6.5 | WEED CONTROL AMBEL (AMBEL; Rate 64.30 g/ha): 8.8 | WEED CONTROL AMBEL (AMBEL; Rate 85.76 g/ha): 9.0
